{"source": "patent US20080009478A1", "about": "“Benzazepine Derivatives and Methods of Prophylaxis or Treatment of 5Ht2c Receptor Associated Diseases” (Arena Pharmaceuticals, Inc., priority 2003, published 2008)", "key": {"human 5HT2C receptor": {"biological_target": "T1, human 5HT2C receptor (Homo sapiens, UniProt P28335)", "T1 construct": "expressed in transfected cells; host or cells: HEK293", "T1 sequence (P28335 33-458)": "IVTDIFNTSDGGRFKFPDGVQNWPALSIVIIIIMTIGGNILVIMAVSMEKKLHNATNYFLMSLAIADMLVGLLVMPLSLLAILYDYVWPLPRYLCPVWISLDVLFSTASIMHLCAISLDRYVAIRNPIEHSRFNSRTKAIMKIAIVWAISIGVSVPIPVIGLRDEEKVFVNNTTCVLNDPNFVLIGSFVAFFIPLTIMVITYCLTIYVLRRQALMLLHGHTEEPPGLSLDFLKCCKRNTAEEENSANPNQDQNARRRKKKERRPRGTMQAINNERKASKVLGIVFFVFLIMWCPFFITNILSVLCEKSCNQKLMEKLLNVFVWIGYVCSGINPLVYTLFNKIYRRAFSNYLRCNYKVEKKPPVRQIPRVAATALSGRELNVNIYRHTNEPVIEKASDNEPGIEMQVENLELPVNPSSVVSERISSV", "experiment": "Intracellular IP3 Accumulation Assay", "assay_type": "cell-based", "details": "HEK293 cells transfected with human 5HT2C receptor; averages of at least two trials; read-out: 5-HT2C (IC50) IP Accumulation Assay", "procedure": "Intracellular IP3 Accumulation Assay\nHEK293 cells were transfected in 15 cm sterile dishes with or without (control) 16 ug of human 5HT2C receptor cDNA [Saltzman, A. G., et al. Biochem. Biophys. Res. Commun. 181, 1469-1478 (1991)] using 25 ul of lipofectamine. Cells were then incubated for 3-4 hours at 37° C./5% CO2 and then transfection media was removed and replaced with 100 μL of DMEM. Cells were then plated onto […] sterile dishes. The next day cells were plated into 96 well PDL microtiter plates at a density of 55K/0.2 ml. Six hours latter, media was exchanged with [^3H]inositol (0.25 μCi/well) in inositol free DMEM and plates were incubated at 37° C./5% CO2 overnight. The next day, wells were aspirated and 200 μl of DMEM containing test compound, 10 μM pargyline, and 10 mM LiCl was added to appropriate wells. Plates were then incubated at 37° C./5% CO2 for three hours followed aspiration and by addition of fresh ice cold stop solution (1M KOH, 19 mM Na-borate, 3.8 mM EDTA) to each well. Plates were kept on ice for 5-10 min and the wells were neutralized by addition of 200 μL of fresh ice cold neutralization solution (7.5% HCl). Plates were then frozen until further processing is desired. The lysate was then transferred into 1.5 mL Eppendorf tubes and 1 mL of chloroform/methanol (1:2) was added/tube. […]"}, "[1]": {"system": "serotonin 5HT2A receptors", "details": "3T3 fibroblasts expressing 5HT2A; cited from earlier work"}, "[2]": {"system": "amyloid precursor protein (APPs)", "details": "guinea pigs, in vivo, repeat administration; cited from earlier work"}}, "note": "Where a name gives a salt, the structure may show the parent alone.", "data": [{"compound": "COc1cc2c(cc1Cc1ccccc1)C(C)CNCC2", "note": "(racemic) [Example 14, (R,S)-8-Benzyl-7-methoxy-1-methyl-2,3,4,5-tetrahydro-1H-benzo[d]azepine hydrochloride]", "values": [{"measurement": "IC50", "setting": "human 5HT2C receptor", "value": 0.007, "unit": "µM"}]}, {"compound": "NCCc1c[nH]c2ccc(O)cc12", "note": "[Example 5-HT, 5-hydroxytryptamine]", "values": [{"measurement": "Maximal stimulation of APPs secretion", "setting": "[1]", "value": "about 4 fold"}]}, {"compound": "C[C@@H]1CNCCc2cc(Cc3ccccc3)c(Cl)cc21", "note": "[Example 13, (S)-7-Benzyl-8-chloro-1-methyl-2,3,4,5-tetrahydro-1H-benzo[d]azepine hydrochloride]", "values": [{"measurement": "IC50", "setting": "human 5HT2C receptor", "value": 0.03, "unit": "µM"}]}, {"compound": "C[C@H](N)Cc1cccc(C(F)(F)F)c1", "note": "[dexnorfenfluramine]", "values": [{"measurement": "amyloid precursor protein (APPs) secretion", "setting": "[2]", "value": "stimulated"}, {"measurement": "levels of Aβ production", "setting": "[2]", "value": "reducing"}]}]}
